{"source": "patent US20250332116A1", "about": "“CARBON-BASED ANTI VIRAL NANOPARTICLES” (PORTO CONTE RICERCHE SOCIETA A RESP[…], priority 2021, published 2025)", "key": {"SARS-CoV-2": {"tested_on": "SARS-CoV-2", "experiment": "Antiviral activity assay (SARS-CoV-2 nucleoprotein ELISA, CPE observation) in Vero E6 cells", "format": "cell-based", "conditions": "Severe acute respiratory syndrome coronavirus 2, Vero C1008"}, "MTS cytotoxicity assay": {"experiment": "MTS cytotoxicity assay", "conditions": "African green monkey (Cercopithecus aethiops), Vero E6 cells"}}, "data": [{"smiles": "CCC(CC)COC(=O)[C@H](C)N[P@](=O)(OC[C@H]1O[C@@](C#N)(c2ccc3c(N)ncnn23)[C@H](O)[C@@H]1O)Oc1ccccc1", "note": "[Remdesivir]", "values": [{"measurement": "activity at 0.05 µg/mL", "setting": "SARS-CoV-2; 0.05 μg mL^−1, m.o.i. 0.01, 72 hours, ELISA, untreated infected control =100%, read-out: Antiviral activity (% viral NC protein, compared to untreated control)", "value": "107 ± 23", "unit": "%"}, {"measurement": "activity at 0.24 µg/mL", "setting": "SARS-CoV-2; 0.24 μg mL^−1, m.o.i. 0.01, 72 hours, ELISA, untreated infected control =100%, read-out: Antiviral activity (% viral NC protein, compared to untreated control)", "value": "96 ± 10", "unit": "%"}, {"measurement": "activity at 1.2 µg/mL", "setting": "SARS-CoV-2; 1.2 μg mL^−1, m.o.i. 0.01, 72 hours, ELISA, untreated infected control =100%, read-out: Antiviral activity (% viral NC protein, compared to untreated control)", "value": "73 ± 9", "unit": "%"}, {"measurement": "activity at 6 µg/mL", "setting": "SARS-CoV-2; 6 μg mL^−1, m.o.i. 0.01, 72 hours, ELISA, untreated infected control =100%, read-out: Antiviral activity (% viral NC protein, compared to untreated control)", "value": "14 ± 7", "unit": "%"}, {"measurement": "IC50", "setting": "SARS-CoV-2; Vero E6, m.o.i. 0.01, 72 hours, nucleoprotein ELISA, read-out: 50% inhibitory concentration (IC50), SARS-CoV-2 viral replication", "value": 1.9, "unit": "µg/mL"}, {"measurement": "CC50 at 72 h", "setting": "MTS cytotoxicity assay", "value": "> 120", "unit": "µg/mL"}, {"measurement": "viability at 72 h, 2.4 μg mL^−1", "setting": "MTS cytotoxicity assay", "value": "94.1 ± 1", "unit": "%"}, {"measurement": "viability at 72 h, 12 μg mL^−1", "setting": "MTS cytotoxicity assay", "value": "98.9 ± 6.7", "unit": "%"}, {"measurement": "viability at 72 h, 60 μg mL^−1", "setting": "MTS cytotoxicity assay", "value": "82.1 ± 2.2", "unit": "%"}]}]}
